Measured values reported in patent US20070142395A1, “Treatment of sexual dysfunction with 1-[3-[4-(3-chlorophenyl)-1-piperazinyl]propyl]-5-methoxy-3,4-dihydro-2(1H)-quinolone or salt thereof” (Vela Pharmaceuticals, Inc., priority 2005, published 2007).
Where “and” joins values, the source holds several entries; their conditions need not be identical. Identical values can stand only once. Marks after values point to notes of the source that are not given here.

System: patients with MDD
Test: Changes in Sexual Function Questionnaire (CSFQ) scores, double-blind placebo-controlled clinical study
Assay type: in vivo, Humans
Parameters: key to CSFQ Desire/Interest score / CSFQ Arousal/Excitement score / CSFQ Orgasm/Completion score / CSFQ Total Score / CSFQ Pleasure score / CSFQ Desire/Frequency score: CSFQ items on 5-point scale; higher = more favorable sexual function
Method: A double-blind, randomized, placebo-controlled, parallel-group study was performed to evaluate the efficacy, safety and tolerability of OPC-14523 in patients with MDD. The patients selected for participation in the trial had to meet DSM-IV-TR criteria for MDD (296.2x or 296.3x; diagnosis via MINI) and had had symptoms of depression for at least 2 months before the start of the double-blind treatment. Among other drugs prohibited during the study, patients were prohibited from taking drugs used to enhance sexual function, including, but not limited to, sildenafil, tadalafil and vardenafil, or taking psychopharmacologic drugs.
There were 131 patients assigned to receive OPC-14523 at the start of the study. One hundred twenty seven (127) of these patients took at least one dose of OPC-14523. There were 137 patients assigned to receive placebo at the start of the study. One hundred thirty three (133) of these patients took at least one dose of placebo.
Each patient was expected to participate for up to 10 weeks. The 10 weeks included: i) a 4- to 10-day screening period, during which potential participants were administered placebo in a single-blind manner; ii) an 8-week double-blind treatment period; and iii) a 4- to 10- day post-treatment visit period. Baseline evaluations, including assessment of sexual function, were conducted on Day −1. The next day, Day 1, the double-blind medication was begun. All treatment was on an outpatient basis.
The dosages studied were 5 mg BID OPC-14523 (10 mg total daily dose of immediate release tablet of Example 1) and placebo. The drugs were taken after meals in the morning and in the evening, about 12 hours apart.
Data on sexual function were collected using the Changes in Sexual Function Questionnaire (CSFQ). The CSFQ is a 14-item self-report measure of sexual functioning vis-â-vis experiences of pleasure, desire, arousal, and orgasm, with a 5-point response option for each item. The 14-item validated CSFQ was developed from a questionnaire comprising 35 and 36 items for female and male respondents, respectively (Clayton et al., Psychopharmacol Bull. 33(4):731-45 (1997) and Clayton et al., Psychopharmacol Bull. 33(4):747-53 (1997), each incorporated herein by reference in its entirety). The CSFQ has also been independently validated (Bobes et al., J Sex Marital Ther. 26(2): 119-31(2000)). The 14-item CSFQ includes items 8, 11, 14, 19-24 from the interview version of the CSFQ (“CSFQ-I”); Clayton et al., Psychopharmacol Bull. 33(4):731-45 (1997)). The CSFQ differs for men and women, reflecting some variation in wording of items. Males were given the male clinical version, CSFQ-M-C, and women were given the female clinical version, CSFQ-F-C. CSFQ-F-C includes items 25, 27, 28, 30 and 31 from the questions for women on the CSFG-I. CSFQ-M-C includes items 28-32 from the questions for men on the CSFQ-I, as well as item 25 from the questions for women.
The 14-item CSFQ has subscales for sexual pleasure (1 item), desire/frequency (2 items), desire/interest (3 items), arousal (3 items), and orgasm (3 items). In addition, a 14-item total score may be calculated. Higher scores are indicative of more favorable sexual functioning. Threshold scores for total and sub-scales have been defined. A score below the threshold score indicates dysfunction.
Results were scored and analyzed according to the CSFQ instruction manual. The p-values resulted from an analysis of covariance (ANCOVA) linear model where the dependent variable is the change from baseline and independent variables are site effect, treatment effect, and baseline. The p-value is from the Type III sums of squares t-test for the hypothesis that the treatment groups are the same versus the alternative they are different. Last observation carry-forward (LOCF) analysis was used as indicated. In the LOCF analysis, for patients who dropped out before completion of the study, the last observations were carried forward to the final time point. […]

[1] = all patients (men and women), Baseline, before treatment
[2] = all patients (men and women), Day 28, 5 mg BID, LOCF
[3] = all patients (men and women), Day 56, 5 mg BID, LOCF
[4] = men only, Baseline, before treatment
[5] = men only, Day 28, 5 mg BID, LOCF
[6] = men only, Day 56, 5 mg BID, LOCF
[7] = women only, Baseline, before treatment
[8] = women only, Day 28, 5 mg BID, LOCF
[9] = women only, Day 56, 5 mg BID, LOCF

## COc1cccc2c1CCC(=O)N2CCCN1CCN(c2cccc(Cl)c2)CC1 [OPC-14523, 1-[3-[4-(3-chlorophenyl)-1-piperazinyl]propyl]-5-methoxy-3,4-dihydro-2(1H)-quinolone]
[1]
  CSFQ Arousal/Excitement score: 8.97
  CSFQ Desire/Frequency score: 5.13
  CSFQ Desire/Interest score: 7.30
  CSFQ Orgasm/Completion score: 9.50
  CSFQ Pleasure score: 2.06
  CSFQ Total Score: 41.9
[2]
  CSFQ Arousal/Excitement score: 9.24
  CSFQ Desire/Frequency score: 5.39
  CSFQ Desire/Interest score: 7.66
  CSFQ Orgasm/Completion score: 9.56
  CSFQ Pleasure score: 2.41**
  CSFQ Total Score: 43.4
[3]
  CSFQ Arousal/Excitement score: 9.55
  CSFQ Desire/Frequency score: 5.57*
  CSFQ Desire/Interest score: 7.94*
  CSFQ Orgasm/Completion score: 9.77
  CSFQ Pleasure score: 2.51 (p = 0.11)
  CSFQ Total Score: 44.4 (p = 0.05)
All patients, compared with placebo, Day 28 and/or Day 56
  sexual function overall, CSFQ Total Scores (in words): significantly improved sexual function overall
Both men and women
  sexual desire (in words): increased sexual desire
men
  sexual pleasure and sexual arousal and excitement (in words): strong trend of improved sexual pleasure and sexual arousal and excitement
[4]
  CSFQ Arousal/Excitement score: 10.5 and 10.48
  CSFQ Desire/Frequency score: 5.8 and 5.77
  CSFQ Desire/Interest score: 8.2 and 8.21
  CSFQ Orgasm/Completion score: 11.3 and 11.33
  CSFQ Pleasure score: 2.2 and 2.15
  CSFQ Total Score: 47.6
[5]
  CSFQ Arousal/Excitement score: 11.13 (p = 0.07)
  CSFQ Desire/Frequency score: 6.26*
  CSFQ Desire/Interest score: 8.94*
  CSFQ Orgasm/Completion score: 11.32
  CSFQ Pleasure score: 2.68***
  CSFQ Total Score: 50.1*
[6]
  CSFQ Arousal/Excitement score: 11.17 (p = 0.13)
  CSFQ Desire/Frequency score: 6.38*
  CSFQ Desire/Interest score: 8.91 (p = 0.07)
  CSFQ Orgasm/Completion score: 11.34
  CSFQ Pleasure score: 2.60 (p = 0.10)
  CSFQ Total Score: 50.2 (p = 0.12)
men, compared with placebo, Day 28 and/or Day 56
  sexual function overall (in words): significantly improved sexual function overall
men, p=0.07
  sexual interest (in words): improved sexual interest
summary
  total CSFQ and every subscale vs placebo (in words): advantage over placebo
[7]
  CSFQ Arousal/Excitement score: 7.9 and 7.91
  CSFQ Desire/Frequency score: 4.7 and 4.68
  CSFQ Desire/Interest score: 6.7 and 6.66
  CSFQ Orgasm/Completion score: 8.2 and 8.21
  CSFQ Pleasure score: 2.0 and 1.99
  CSFQ Total Score: 37.8
[8]
  CSFQ Arousal/Excitement score: 7.91
  CSFQ Desire/Frequency score: 4.78
  CSFQ Desire/Interest score: 6.76
  CSFQ Orgasm/Completion score: 8.33
  CSFQ Pleasure score: 2.22
  CSFQ Total Score: 38.7
[9]
  CSFQ Arousal/Excitement score: 8.43
  CSFQ Desire/Frequency score: 5.01
  CSFQ Desire/Interest score: 7.26 (p = 0.08)
  CSFQ Orgasm/Completion score: 8.69
  CSFQ Pleasure score: 2.46
  CSFQ Total Score: 40.4
women, compared with placebo, Day 28 and/or Day 56
  sexual desire/interest (in words): strong trend
women, p=0.08
  sexual interest (in words): improved sexual interest
